Measured values from US20100159449A1, “Continuous Assay Method for Measuring Receptor- and Ion Channel-Mediated Calcium Response and Subsequent Gene Expression” (NOACELL SCIENCE CO., LTD., priority 2006, published 2010).
Where a name gives a salt, the structure may show the parent alone.

Tests used:
purine receptors [1] = assay: cAMP-responding (CRE) Renilla luciferase reporter assay in CHO cells expressing purine receptors; assay type: cell-based; details: ATP 10^-3 to 10^-9 M, six hours later, EnduRen substrate (FIG. 4)
Procedure: (§1) To begin with, plasmids (pcDNA MtAEQ, pcDNA Gα16, and pGL3 CRE-Renilla) were introduced into CHO cells. […] The results are graphed in FIGS. 3 and 4.
(§2) In detail, a CHO cell line (ATCC-deposited cells) that expresses purine receptors was seeded into 10 cm^2 Petri dishes at a 1.5×10^5 cells/ml cellular concentration.
(§3) The next day, 2.2 μg Gα16 (pcDNA Gα16), 3 μg aequorin-expressing plasmids (pcDNA MtAequorin), and 3 μg cAMP-responding Renilla luciferase plasmids (pGL3 CRE-Renilla) were transfected into each Petri dish employing 18 μL of FuGENE® 6 (by Roche Diagnostics).
(§4) The following day, 400 μL of trypsin/EDTA solution was added to the Petri dishes, and the cells were dissociated and suspended in 13 mL of DMEM/F12 FCS nutrient broth. […] Thereafter culturing was continued, and the results six hours later of measuring the activity of Renilla luciferase with the ARVO were diagrammed (FIG. 4). […] It will be understood that, with no induction of cAMP-mediated Renilla luciferase occurring, the purine receptors were Gq-coupled GPCRs.

purine receptors [2] = assay: aequorin-mediated calcium response (flash luminescence) in transfected CHO cells; assay type: cell-based; details: ATP 10^-3 to 10^-9 M, 30 seconds after addition, EnduRen or wildtype coelenterazine as substrate (FIG. 9)
Procedure: as §1, §2, §3, §4
Wildtype coelenterazine and, as a stable substrate, EnduRen™ were employed as luminescent substrates for enzymes, and the continuous-measurement regimes were compared. Plasmids were introduced into CHO cells. […]

[3] = target: dopamine receptors (D2RS) (Homo sapiens, UniProt P14416); details: D2RS-expressing CHO cells; dopamine 10^-3 to 10^-9 M; following day forskolin added, six hours culturing (FIG. 8)
Chain of dopamine receptors (D2RS) (P14416 1-414 isoform P14416-2): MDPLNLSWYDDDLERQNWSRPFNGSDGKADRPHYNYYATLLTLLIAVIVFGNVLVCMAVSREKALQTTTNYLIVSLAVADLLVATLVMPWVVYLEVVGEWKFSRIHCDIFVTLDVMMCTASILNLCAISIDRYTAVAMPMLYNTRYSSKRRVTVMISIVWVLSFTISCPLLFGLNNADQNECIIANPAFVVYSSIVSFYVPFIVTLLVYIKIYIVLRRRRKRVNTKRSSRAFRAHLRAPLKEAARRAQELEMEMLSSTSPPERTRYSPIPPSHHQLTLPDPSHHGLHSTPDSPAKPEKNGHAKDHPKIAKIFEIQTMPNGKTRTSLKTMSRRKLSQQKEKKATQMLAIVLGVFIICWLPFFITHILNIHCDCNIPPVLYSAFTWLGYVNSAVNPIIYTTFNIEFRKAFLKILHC
Procedure: To begin with, plasmids were introduced into dopamine-receptor (D2RS) expressing cells. Following an overnight culturing, EnduRen™ was added as a substrate, the combination was cultivated four hours, and from 10^−3 to 10^−9 M sample (dopamine) was added.
In detail, dopamine receptors (D2RS) were transfected into a CHO cell line (ATCC-deposited cells), and, in the same manner as in Embodiment 1, Gα16, aequorin-expressing plasmids, and cAMP-responding Renilla luciferase plasmids were transfected into the stably expressing cell line and the cell suspension solution was adjusted.
The following day, 10 μL of 10^−5 M forskolin was added, and culturing was continued for six hours. The results of measuring the activity of Renilla luciferase were diagrammed (FIG. 8). In FIG. 8, the vertical axis indicates the per-second luminescent intensity (count per second), and the horizontal axis, the dopamine concentration.

[4] = target: serotonin receptor (5HT2A) (Homo sapiens, UniProt P28223); assay: cAMP-responding (CRE) Renilla luciferase reporter assay in serotonin-receptor expressing CHO cells; assay type: cell-based; details: 5HT2A-expressing CHO cells; serotonin 2.5x10^-6 to 2.5x10^-12 M; culturing six hours; EnduRen substrate (FIG. 6)
Chain of serotonin receptor (5HT2A) (P28223 whole entry, species assumed): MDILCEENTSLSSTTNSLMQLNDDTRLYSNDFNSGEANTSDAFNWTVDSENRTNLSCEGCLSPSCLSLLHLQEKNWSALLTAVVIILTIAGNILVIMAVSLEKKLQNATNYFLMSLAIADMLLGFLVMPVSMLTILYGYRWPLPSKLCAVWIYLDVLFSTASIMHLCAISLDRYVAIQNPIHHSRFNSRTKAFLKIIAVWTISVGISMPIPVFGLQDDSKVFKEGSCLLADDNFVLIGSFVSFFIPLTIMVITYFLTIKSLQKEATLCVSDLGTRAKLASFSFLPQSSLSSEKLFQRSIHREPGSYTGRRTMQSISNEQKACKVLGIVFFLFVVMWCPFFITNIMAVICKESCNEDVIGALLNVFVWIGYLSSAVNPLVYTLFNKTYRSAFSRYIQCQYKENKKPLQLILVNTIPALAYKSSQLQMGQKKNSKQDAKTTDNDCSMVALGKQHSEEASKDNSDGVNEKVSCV
Procedure: To begin with, plasmids (pcDNA MtAEQ, pcDNA Gα16, and pGL3 CRE-Renilla) were introduced into serotonin-receptor (5HT2A) expressing cells. Following an overnight culturing, EnduRen™ was added as a substrate, the combination was cultivated four hours, and from 2.5×10^−6 to 2.5×10^−12 M sample (serotonin) was added. For 30 seconds directly post-addition, the aequorin-mediated luminescence was continuously measured.
In detail, a serotonin receptor (5HT2A) was transfected into a CHO cell line (ATCC-deposited cells), and, in the same manner as in Embodiment 1, Gα16, aequorin-expressing plasmids, and cAMP-responding Renilla luciferase plasmids were transfected into the stably expressing cell line and the cell suspension solution was adjusted.
As a stable substrate, 30 μm EnduRen™ was added, and after four hours' culturing, 90 μL of the cell suspension solution was added into each well of a 96-well plate into which 10 μL serotonin hydrochloride as serotonin-receptor ligands had been added at 2.5×10^−6 to 2.5×10^−12 M concentration. Results of measuring the change in luminescent intensity for 30 seconds immediately following the suspension addition, employing the ARVO luminometer by Berthold Technologies GmbH, were diagrammed (FIG. 5). In FIG. 5, the vertical axis indicates the per-second luminescent intensity (count per second), and the horizontal axis, the measuring time (seconds). […]

SMILES: Nc1ncnc2c1ncn2[C@@H]1O[C@H](COP(=O)([O-])OP(=O)([O-])OP(=O)(O)O)[C@@H](O)[C@H]1O.O.[Na+].[Na+] [ATP, adenosine 5′-triphosphate disodium hydrate]
- induction of cAMP-mediated Renilla luciferase (purine receptors [1]): no induction
- ATP-stimulated calcium response by aequorin luminescence (purine receptors [2]): calcium response can be measured

SMILES: Cl.NCCc1ccc(O)c(O)c1 [dopamine, dopamine hydrochloride]
- forskolin-stimulated activity of Renilla luciferase [3]: declined

SMILES: NCCc1c[nH]c2ccc(O)cc12 [serotonin, serotonin hydrochloride]
- cAMP-mediated increase in (induction of) Renilla luciferase [4]: increase in (induction of) Renilla luciferase was confirmed
